Assay results published in patent US10738007B2, “Amide compounds as kinase inhibitors, compositions and methods of treatment” (TRANSLATIONAL DRUG DEVELOPMENT, LLC, priority 2016, dated 2020).

Assays:
[1] = system: MV411 cell line; experiment: Cell viability assay ([…]-GLO), MV411; type: cell-based; details: for IC50: MV411 (ITD-FLT3+), 72 hours treatment; for FLT3-ITD+ Selectivity (K562/MV411): ratio K562/MV411
Procedure: Cell viability was measured by the […] -GlO® cell viability assay from Promega (Madison, Wis.). The […] -GlO Luminescent Cell Viability Assay is a homogeneous method to determine the number of viable cells in culture based on quantitation of the ATP present, which signals the presence of metabolically active cells. Following treatment, […] -GlO® is added to treatment wells and incubated at 37° C. Luminescence values were measured at using a Molecular Devices Spectramax microplate reader.

[2] = system: K562 cell line; experiment: Cell viability assay ([…]-GLO), K562; type: cell-based; details: K562 (does not express ITD-FLT3), 72 hours treatment
Procedure: Cell viability in the presence of varying concentrations of the above listed compounds at different time points was used to assess cytotoxicity and the effect of the compounds on cell proliferation.
Cell viability was measured by the […]-GlO® cell viability assay from Promega (Madison, Wis.). The […]-GlO Luminescent Cell Viability Assay is a homogeneous method to determine the number of viable cells in culture based on quantitation of the ATP present, which signals the presence of metabolically active cells. Following treatment, […]-GlO® is added to treatment wells and incubated at 37° C. Luminescence values were measured at using a Molecular Devices Spectramax microplate reader.
Cells were grown to 70% confluency, trypsinized, counted, and seeded in 96 well flat-bottom plates at a final concentration of 2.5×10^3-5×10^3 cells/well (Day 0). Cells were allowed to incubate in growth media for 24 hours. Treatment with the test agents or standard agents began on Day 1 and continued for 72 hours. At the 72-hour time point, treatment containing media was removed. Viable cell numbers were quantified by the […]-GLO® cell viability assay as described above. Results from these studies were used to calculate an IC50 value (concentration of drug that inhibits cell growth by 50 percent of control) for each compound.
For single agent and combination studies, data from each experiment was collected and expressed as % Cell Growth using the following calculation: % Cell Growth=(ftest/fvehicle)×100
Where ftest is the luminescence of the tested sample, and fvehicle is the luminescence of the vehicle in which the drug is dissolved. Dose response graphs and IC50 values were generated using Prism 6 software (GraphPad) using the following equation: Y=(Top−Bottom)/(1+10^((logIC50-X)−HillSlope))
Where X is the logarithm of the concentration and Y is the response. Y starts at the Bottom and goes to the Top with a sigmoid shape.
The experiments also evaluated the selectivity of the compounds for inhibiting growth of cancer cells carrying a mutation in the Flt3 gene. The MV411 cell line expresses the mutant allele of Flt3 with internal tandem duplications (ITD) of the gene. See Quentmeier et al., “FLT3 Mutations in Acute Myeloid Leukemia Cell Lines,” Leukemia 17(1), 2003, 120-124. […] See Grafone et al., “Monitoring of FLT3 Phosphorylation Status and Its Response to Drugs By Flow Cytometry in AML Blast Cells,” Hematol Oncol. 26(3), 2008, 159-166.

[3] = molecular target: ROCK2 (Homo sapiens (Human), UniProt O75116); experiment: ROCK2 kinase inhibition assay (peptide phosphorylation, LABCHIP 3000); type: biochemical; details: 7 μM ATP, 2.5 nM ROCK2, 3 hours at 25° C.
Chain of ROCK2 (O75116 whole entry, species assumed): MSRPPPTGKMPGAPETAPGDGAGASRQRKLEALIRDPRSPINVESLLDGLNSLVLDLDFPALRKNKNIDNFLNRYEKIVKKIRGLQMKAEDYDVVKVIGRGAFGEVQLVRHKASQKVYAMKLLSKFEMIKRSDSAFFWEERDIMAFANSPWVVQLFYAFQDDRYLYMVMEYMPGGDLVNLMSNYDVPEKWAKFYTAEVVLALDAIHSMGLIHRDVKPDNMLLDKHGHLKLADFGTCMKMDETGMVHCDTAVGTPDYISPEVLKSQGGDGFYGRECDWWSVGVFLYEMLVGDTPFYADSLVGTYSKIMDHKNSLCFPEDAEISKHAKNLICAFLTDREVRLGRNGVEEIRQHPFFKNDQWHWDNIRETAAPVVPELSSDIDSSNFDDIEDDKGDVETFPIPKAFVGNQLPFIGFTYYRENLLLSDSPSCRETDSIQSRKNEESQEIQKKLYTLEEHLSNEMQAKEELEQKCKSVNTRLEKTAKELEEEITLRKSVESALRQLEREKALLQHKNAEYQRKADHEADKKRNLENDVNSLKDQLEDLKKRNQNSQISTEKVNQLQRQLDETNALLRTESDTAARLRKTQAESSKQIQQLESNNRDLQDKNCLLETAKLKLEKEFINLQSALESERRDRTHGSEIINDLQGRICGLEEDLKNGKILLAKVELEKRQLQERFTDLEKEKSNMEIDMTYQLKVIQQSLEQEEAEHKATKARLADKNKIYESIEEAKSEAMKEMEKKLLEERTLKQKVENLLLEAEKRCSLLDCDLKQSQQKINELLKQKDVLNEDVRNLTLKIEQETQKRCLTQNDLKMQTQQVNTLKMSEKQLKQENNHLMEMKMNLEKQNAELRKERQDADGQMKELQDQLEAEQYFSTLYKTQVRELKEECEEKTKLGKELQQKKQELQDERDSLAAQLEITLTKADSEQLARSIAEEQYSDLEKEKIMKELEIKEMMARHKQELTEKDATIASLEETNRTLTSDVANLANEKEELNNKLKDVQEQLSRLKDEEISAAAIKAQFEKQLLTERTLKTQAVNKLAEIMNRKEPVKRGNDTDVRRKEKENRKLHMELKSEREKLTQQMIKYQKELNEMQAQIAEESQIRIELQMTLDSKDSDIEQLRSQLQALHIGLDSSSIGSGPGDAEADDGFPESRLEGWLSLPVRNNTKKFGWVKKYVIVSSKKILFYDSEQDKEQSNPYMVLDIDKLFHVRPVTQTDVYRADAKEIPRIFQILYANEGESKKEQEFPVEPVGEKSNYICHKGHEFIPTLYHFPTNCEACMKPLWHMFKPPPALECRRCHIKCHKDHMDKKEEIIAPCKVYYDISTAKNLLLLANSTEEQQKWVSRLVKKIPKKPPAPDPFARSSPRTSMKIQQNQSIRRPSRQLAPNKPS
Procedure: The peptide is phosphorylated by the protein kinase ROCK1 or ROCK2. The ROCK1 or ROCK2 enzyme, substrate, and cofactors (ATP and Mg^2+) are combined in a well of a microtiter plate and incubated for 3 hours at 25° C. in the presence or absence of an inhibitor compound. At the end of the incubation, the reaction is quenched by the addition of an EDTA-containing buffer. The substrate and product are separated and quantified electrophoretically using the microfluidic-based LABCHIP® 3000 Drug Discovery System from Caliper Life Sciences (Hopkinton, Mass.).
The components of the assay mixture are:
10 μM Sodium Orthovanadate
10 LM Beta-Glycerophosphate
5 μM ATP (for ROCK1) or 7 μM ATP (for ROCK2)
3 nM ROCK1 or 2.5 nM ROCK2 enzyme
Substrate and product peptides present in each sample are separated electrophoretically using the LABCHIP® 3000 capillary electrophoresis instrument. […] Change in the relative fluorescence intensity of the substrate and product peaks is the parameter measured reflecting enzyme activity. Capillary electrophoregramms (RDA acquisition files) are analyzed using HTS Well Analyzer software (Caliper Life Sciences, Hopkinton, Mass.). The kinase activity in each sample is determined as the product to sum ratio (PSR): P/(S+P), where P is the peak height of the product peptide and S is the peak height of the substrate peptide. For each compound, enzyme activity is measured at various concentrations (12 concentrations of compound spaced by 3× dilution intervals). Negative control samples (0%-inhibition in the absence of inhibitor) and positive control samples (100%-inhibition in the presence of 20 mM EDTA) are assembled in replicates of four and are used to calculate %-inhibition values for each compound at each concentration. Percent inhibition (Pinh) is determined using the following equation: Pinh=(PSRO %−PSRinh)/(PSRO %−PSR100%)*100
where PSRinh is the product sum ratio in the presence of inhibitor, PSRO % is the average product sum ratio in the absence of inhibitor, and PSR100% is the average product sum ratio in 100%-inhibition control samples. The IC50 values of inhibitors are determined by fitting the inhibition curves (Pinh versus inhibitor concentration) by the 4-parameter sigmoidal dose-response model using XLfit 4 software (IBDS).

Row | SMILES | IC50 ([1]; Homo sapiens, MV4-11) | FLT3-ITD+ Selectivity (K562/MV411) [1] | IC50 ([2]; Homo sapiens) | IC50 [3] | IC50 [1] | IC50 [2]
1 | CCOc1cc(-c2cn[nH]c2)ccc1C(=O)N[C@H](CO)c1cccc(C(=O)NC2CCCC2)c1 [Compound 101] | 80 nM | 194 | 15000 nM | 0.25 nM | – | –
2 | O=C(Nc1ccccc1)c1cccc([C@@H](CO)NC(=O)c2ccc(-c3ccncc3)cc2)c1 [Compound 9] | 800 nM | 47 | 35000 nM | 1.7 nM | – | –
3 | COc1cccc(CN(CCN(C)C)C(=O)c2cccc([C@@H](CO)NC(=O)c3ccc(-c4ccncc4)cc3)c2)c1 [Compound 25] | 18900 nM | – | – | – | – | –
4 | CN(C)CC1(NC(=O)c2cccc([C@@H](CO)NC(=O)c3ccc(-c4ccncc4)cc3)c2)CCCC1 [Compound 74] | 9120 nM | 8 | 74000 nM | 27.1 nM | – | –
5 | O=C(NCC1CCN(C2CC2)CC1)c1cccc([C@@H](CO)NC(=O)c2ccc(-c3ccncc3)cc2)c1 [Compound 58] | 40 nM | >2525 | > 100000 nM | 0.44 nM | – | –
6 | O=C(NC1CCCC1)c1cccc([C@@H](CO)NC(=O)c2ccc(-c3cn[nH]c3)cc2F)c1 [Compound 95] | 890 nM | 86 | 76000 nM | 2.34 nM | – | –
7 | CC1(NC(=O)c2cccc([C@@H](CO)NC(=O)c3ccc(-c4ccncc4)cc3)c2)CCC1 [Compound 71] | 910 nM | 37 | 34000 nM | 9 nM | – | –
8 | O=C(NC1CC1)c1cccc([C@@H](CO)NC(=O)c2ccc(-c3ccncc3)cc2)c1 [Compound 12] | 540 nM | >187 | > 100000 nM | 1.8 nM | – | –
9 | CN1CCc2ccc(NC(=O)c3cccc([C@@H](CO)NC(=O)c4ccc(-c5ccncc5)cn4)c3)cc2C1 [Compound 37] | 1700 nM | – | – | 3 nM | – | –
10 | CN(C)C1(CNC(=O)c2cccc([C@@H](CO)NC(=O)c3ccc(-c4ccncc4)cc3)c2)CCCC1 [Compound 72] | 100 nM | 891 | 89000 nM | 0.5 nM | – | –
11 | O=C(NCC1CCC1)c1cccc([C@@H](CO)NC(=O)c2ccc(-c3ccncc3)cc2)c1 [Compound 66] | 130 nM | 279 | 36000 nM | 0.6 nM | – | –
12 | Cc1c[nH]c2nccc(Oc3c(F)cc(Nc4cc(Cl)nc(N)n4)cc3F)c12 [Compound A, reference compound] | 700 nM | – | 800 nM | – | – | –
13 | CC(C)NC(=O)c1cccc([C@@H](CO)NC(=O)c2ccc(-c3ccncc3)cc2)c1 [Compound 62] | 1030 nM | 63 | 65000 nM | 2.85 nM | – | –
14 | CC(C)N1CCC(CNC(=O)c2cccc([C@@H](C)NC(=O)c3ccc(-c4ccncc4)cc3)c2)CC1 [Compound 60] | 40 nM | >2525 | > 100000 nM | 0.53 nM | – | –
15 | CN1CCc2ccc(NC(=O)c3cccc([C@@H](CO)NC(=O)c4ccc(-c5cccnc5)cc4)c3)cc2C1 [Compound 44] | – | – | – | 240 nM | – | –
16 | COc1ccc(CNC(=O)c2cccc([C@@H](CO)NC(=O)c3ccc(-c4ccncc4)cc3)c2)cc1 [Compound 85] | 90 nM | 368 | 33000 nM | 0.6 nM | – | –
17 | COc1ccc(C(=O)N[C@H](CO)c2cccc(C(=O)Nc3ccc4c(c3)CN(C)CC4)c2)cc1C [Compound 19] | 13200 nM | 3 | 44000 nM | – | – | –
18 | C[C@@H](NC(=O)c1ccc(-c2ccncc2)cc1)c1cccc(C(=O)Nc2ccc3c(c2)CN(C)CC3)c1 [Compound 6] | 200 nM | 40 | 8000 nM | 1.2 nM | – | –
19 | COC(=O)N1CCC(CNC(=O)c2cccc([C@@H](CO)NC(=O)c3ccc(-c4ccncc4)cc3)c2)CC1 [Compound 91] | – | >4040 | – | 0.57 nM | 30 nM | > 100000 nM
20 | COC1(CNC(=O)c2cccc([C@@H](CO)NC(=O)c3ccc(-c4ccncc4)cc3)c2)CCCC1 [Compound 87] | 270 nM | 85 | 23000 nM | 0.8 nM | – | –
21 | COCCOc1cccc(CNC(=O)c2cccc([C@@H](CO)NC(=O)c3ccc(-c4ccncc4)cc3)c2)c1 [Compound 34] | – | – | – | 0.69 nM | – | –

Row | SMILES | IC50 ([1]; Homo sapiens, MV4-11) | FLT3-ITD+ Selectivity (K562/MV411) [1] | IC50 ([2]; Homo sapiens) | IC50 [3] | IC50 [1] | IC50 [2]
22 | CN1CCc2ccc(NC(=O)c3cccc([C@@H](CO)NC(=O)c4ccc(-c5ccncc5)cc4)c3)cc2C1=O [Compound 27] | 4400 nM | 6 | 25000 nM | 0.39 nM | – | –
23 | COC1(CNC(=O)c2cccc([C@@H](CO)NC(=O)c3ccc(-c4ccncc4)cc3)c2)CCC1 [Compound 73] | 80 nM | 337 | 27000 nM | 0.6 nM | – | –
24 | O=C(NC1CCN(CC(F)(F)F)CC1)c1cccc([C@@H](CO)NC(=O)c2ccc(-c3ccncc3)cc2)c1 [Compound 92] | – | >3061 | – | 0.68 nM | 30 nM | > 100000 nM
25 | O=C(NC1CCN(C2CC2)CC1)c1cccc([C@@H](CO)NC(=O)c2ccc(-c3ccncc3)cc2)c1 [Compound 54] | 70 nM | >1443 | > 100000 nM | 0.54 nM | – | –
26 | O=C(NCC1CCCC1)c1cccc([C@@H](CO)NC(=O)c2ccc(-c3ccncc3)cc2)c1 [Compound 89] | 280 nM | 236 | 66000 nM | 0.72 nM | – | –
27 | O=C(NCC1(O)CCCCC1)c1cccc([C@@H](CO)NC(=O)c2ccc(-c3ccncc3)cc2)c1 [Compound 69] | 150 nM | 350 | 52000 nM | 0.7 nM | – | –
28 | CNC(=O)c1cccc([C@@H](CO)NC(=O)c2ccc(-c3ccncc3)cc2)c1 [Compound 11] | 12300 nM | >8 | > 100000 nM | 2.7 nM | – | –
29 | C[C@@H](NC(=O)c1ccc(-c2cn[nH]c2)cc1)c1cccc(C(=O)NC2CCCC2)c1 [Compound 97] | 110 nM | 154 | 17000 nM | 0.74 nM | – | –
30 | CN1Cc2ccc(NC(=O)c3cccc([C@@H](CO)NC(=O)c4ccc(-c5ccncc5)cc4)c3)cc2C1 [Compound 8] | – | – | – | 1.3 nM | – | –
31 | CN1CCc2ccc(NC(=O)c3cccc([C@@H](CO)NC(=O)c4cccc(-c5ccn[nH]5)c4)c3)cc2C1 [Compound 42] | – | – | – | 72.6 nM | – | –
32 | COc1ccc(C(=O)N[C@H](C)c2cccc(C(=O)NCC3CCN(C(C)C)CC3)c2)cc1C [Compound 68] | – | – | – | 104 nM | – | –
33 | O=C(NC1CCCC1)c1cccc([C@@H](CO)NC(=O)c2cccc(-c3cn[nH]c3)c2)c1 [Compound 106] | – | – | – | 20 nM | – | –
34 | CN(C(=O)c1cccc([C@@H](CO)NC(=O)c2ccc(-c3ccncc3)cc2)c1)C1CC1 [Compound 38] | 20000 nM | – | – | 56 nM | – | –
35 | O=C(NC1CCCC1)c1cccc([C@@H](CO)NC(=O)c2cccc(-c3cn[nH]c3)c2)c1 [Compound 83] | 3600 nM | >28 | > 100000 nM | – | – | –
36 | CN(C(=O)c1ccc(-c2ccncc2)cc1)[C@H](CO)c1cccc(C(=O)NC2CCCC2)c1 [Compound 45] | – | – | – | 257 nM | – | –
37 | CN1CCc2ccc(NC(=O)c3cccc([C@@H](CO)NC(=O)c4ccc(-c5ccn[nH]5)cc4)c3)cc2C1 [Compound 43] | – | – | – | 9.3 nM | – | –
38 | CN1CCc2ccc(NC(=O)c3cccc([C@@H](CO)NC(=O)c4cccc(-c5ccncc5)c4)c3)cc2C1 [Compound 41] | – | – | – | 6.53 nM | – | –
39 | CN1CCOc2ccc(NC(=O)c3cccc([C@@H](CO)NC(=O)c4ccc(-c5ccncc5)cc4)c3)cc2C1 [Compound 29] | 65100 nM | – | – | – | – | –
40 | C[C@H](c1cccc(C(=O)NC2CCCC2)c1)N(CCN(C)C)C(=O)c1ccc(-c2ccncc2)cc1 [Compound 98] | – | – | – | 0.23 nM | – | –
41 | CN(C)Cc1cccc(CNC(=O)c2cccc([C@@H](CO)NC(=O)c3ccc(-c4ccncc4)cc3)c2)c1 [Compound 33] | – | – | – | 0.38 nM | – | –
42 | C[C@@H](NC(=O)c1ccc(-c2ccncc2)cc1)c1cccc(C(=O)NCC2CCC(F)(F)CC2)c1 [Compound 40] | 3400 nM | – | – | 0.41 nM | – | –
